From patent US20070020713A1, “Antibodies to the fuel oxygenate mtbe and use thereof in immunoassays” (priority 2003, published 2007)
Where a name gives a salt, the structure may show the parent alone.

Tested on: anti-MTBE antibody prepared in Example 1 (anti-MTBE/7-methoxy-3,7-dimethyloctanal antibody)
Test: Anti-MTBE monoclonal antibody cross-reactivity, indirect competitive ELISA
Assay type: binding
Settings: for IC50 (concentration of analyte required to inhibit the maximum assay signal B0 by 50%): B/B0=50%, read from FIG. 4

Compound	IC50 (concentration of analyte required to inhibit the maximum assay signal B0 by 50%) [µg/mL]	cross-reactivity of the antibody (FIG. 4)
COC(C)(C)C [MTBE, methyl tert-butyl ether]	~10	
CCC(C)(C)OC [TAME, methyl tert-amyl ether]	~10	
CC(C)(C)O [TBA, tert-butyl alcohol]	~180	
CC(C)(C)OC=O [TBF, tert-butyl formate]	~60	
CO [methanol]		no significant cross-reactivity
